{"source": "ChEMBL document CHEMBL5726287", "about": "“Biaryl acetamide compounds and methods of use thereof” (2017)", "target": "Mast/stem cell growth factor receptor Kit (Homo sapiens, UniProt P10721)", "sequence (P10721 whole entry, the tested form may be a part)": "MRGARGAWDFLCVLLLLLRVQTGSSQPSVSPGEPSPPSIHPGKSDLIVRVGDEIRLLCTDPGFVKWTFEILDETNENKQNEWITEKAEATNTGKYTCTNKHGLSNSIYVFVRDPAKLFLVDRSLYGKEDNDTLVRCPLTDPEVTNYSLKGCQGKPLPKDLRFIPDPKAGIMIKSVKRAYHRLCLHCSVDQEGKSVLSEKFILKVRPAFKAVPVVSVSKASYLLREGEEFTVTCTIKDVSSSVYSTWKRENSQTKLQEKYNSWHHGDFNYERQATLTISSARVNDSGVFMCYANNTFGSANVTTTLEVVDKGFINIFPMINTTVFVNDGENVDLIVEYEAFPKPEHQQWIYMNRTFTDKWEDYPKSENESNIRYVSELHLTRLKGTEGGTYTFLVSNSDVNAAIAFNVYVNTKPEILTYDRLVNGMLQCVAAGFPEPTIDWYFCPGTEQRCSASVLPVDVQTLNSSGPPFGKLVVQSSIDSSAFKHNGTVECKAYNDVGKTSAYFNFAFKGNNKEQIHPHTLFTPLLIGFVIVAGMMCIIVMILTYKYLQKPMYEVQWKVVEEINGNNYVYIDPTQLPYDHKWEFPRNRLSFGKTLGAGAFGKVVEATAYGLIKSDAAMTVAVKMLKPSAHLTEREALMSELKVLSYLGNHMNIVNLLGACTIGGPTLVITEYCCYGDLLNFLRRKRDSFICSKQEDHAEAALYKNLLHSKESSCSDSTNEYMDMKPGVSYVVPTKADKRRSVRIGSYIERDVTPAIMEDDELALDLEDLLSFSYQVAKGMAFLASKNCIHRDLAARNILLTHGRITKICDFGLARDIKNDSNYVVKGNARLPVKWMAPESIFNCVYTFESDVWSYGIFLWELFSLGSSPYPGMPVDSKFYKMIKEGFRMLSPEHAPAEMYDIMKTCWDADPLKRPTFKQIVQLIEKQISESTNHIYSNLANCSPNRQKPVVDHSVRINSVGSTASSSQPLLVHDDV", "assay": "Competition Binding Assay: Competition binding assays used herein were developed, validated and performed as described in Fabian et al., Nature Biotechnology 2005, 23, 329-336. Kinases were produced as fusions to T7 phage (See, Fabian et al. or WO04/015142) or alternatively, the kinases were expressed in HEK-293 cells and subsequently tagged with DNA for PCR detection (See, WO08/005,310). […] The liganded beads were blocked with excess biotin and washed with blocking buffer (SeaBlock (Pierce), 1% BSA, 0.05% Tween 20, 1 mM DTT) to remove unbound ligand and to reduce non-specific binding. […] Test compounds were prepared as 100× stocks in DMSO and diluted into the aqueous environment. Kds were determined using an eleven point threefold serial dilutions. DMSO or control compounds were was added to control assays lacking a test compound.", "assay_type": "cell-based", "data": [{"smiles": "COc1cc2ncc(-c3ccc(CC(=O)Nc4cc(C5(C(F)(F)F)CC5)on4)cc3)nc2cc1OC", "values": [{"measurement": "Kd", "value": "< 5", "unit": "nM"}]}, {"smiles": "COc1cc2nc(-c3ccc(CC(=O)Nc4cc(C5(C)CC5)no4)c(F)c3)cnc2cc1OCCN1CCOCC1", "values": [{"measurement": "Kd", "value": "< 5", "unit": "nM"}]}, {"smiles": "COc1cc2nc(-c3ccc(CC(=O)Nc4cc(C(C)(C)C(F)(F)F)nn4C)c(F)c3)cnc2cc1OCCN1CCOCC1", "values": [{"measurement": "Kd", "value": "< 5", "unit": "nM"}]}]}
